Experimental findings from ChEMBL document CHEMBL4715808, “Discovery of (1S,2R,3S,4S,5R,6R)-2-Amino-3-[(3,4-difluorophenyl)sulfanylmethyl]-4-hydroxy-bicyclo[3.1.0]hexane-2,6-dicarboxylic Acid Hydrochloride (LY3020371·HCl): A Potent, Metabotropic Glutamate 2/3 Receptor Antagonist with Antidepressant-Like Activity” (J Med Chem, 2016) are described below.

In general, IC50 refers to the point on the concentration scale where inhibition reaches its midpoint. One may read the Ki as a measure of affinity in units of concentration, obtained from inhibition or displacement.

Assay [1] addresses T1, Metabotropic glutamate receptor 3 (Homo sapiens, UniProt Q14832). The assay can be described thus: Antagonist activity at human recombinant mGlu3 receptor stably expressed in golden hamster AV12 cells co-expressing rat EAAT1 assessed as reduction in DCG IV-induced inhibition of forskolin-stimulated cAMP accumulation preincubated for 20 mins followed by incubation with cAMP-d2 conjugate and anti-cAMP cryptate for 1 hr by HTRF assay. The format is functional, cell-based. Background: cAMP levels reflect the balance of adenylyl cyclase and phosphodiesterase activity.

For assay [2], the target named is T1, Metabotropic glutamate receptor 3. The assay can be described thus: Displacement of [3H]-LY459477 from recombinant human mGlu3 receptor expressed in hamster AV12 cell membranes co-expressing rat EAAT1 incubated for 90 mins by top count scintillation method. Further details: species or system Cell membrane. (In general: Displacement assays read how much labelled ligand stays bound in the presence of the test substance.)

In assay [3] the target is T2, Metabotropic glutamate receptor 2 (Homo sapiens, UniProt Q14416).
Description: Displacement of [3H]-LY459477 from recombinant human mGlu2 receptor expressed in hamster AV12 cell membranes co-expressing rat EAAT1 incubated for 90 mins by top count scintillation method
Assay [4] deals with T2, Metabotropic glutamate receptor 2. The source holds these as a separate data set.
Description: Antagonist activity at human recombinant mGlu2 receptor stably expressed in golden hamster AV12 cells co-expressing rat EAAT1 assessed as reduction in DCG IV-induced inhibition of forskolin-stimulated cAMP accumulation preincubated for 20 mins followed by incubation with cAMP-d2 conjugate and anti-cAMP cryptate for 1 hr by HTRF assay
Assay [5] has the same target. The assay can be described thus: […] at mGlu2 (unknown origin).
In assay [6] the target is T1, Metabotropic glutamate receptor 3. The assay can be described thus: […] at mGlu3 (unknown origin).

T2 sequence (Q14416 whole entry): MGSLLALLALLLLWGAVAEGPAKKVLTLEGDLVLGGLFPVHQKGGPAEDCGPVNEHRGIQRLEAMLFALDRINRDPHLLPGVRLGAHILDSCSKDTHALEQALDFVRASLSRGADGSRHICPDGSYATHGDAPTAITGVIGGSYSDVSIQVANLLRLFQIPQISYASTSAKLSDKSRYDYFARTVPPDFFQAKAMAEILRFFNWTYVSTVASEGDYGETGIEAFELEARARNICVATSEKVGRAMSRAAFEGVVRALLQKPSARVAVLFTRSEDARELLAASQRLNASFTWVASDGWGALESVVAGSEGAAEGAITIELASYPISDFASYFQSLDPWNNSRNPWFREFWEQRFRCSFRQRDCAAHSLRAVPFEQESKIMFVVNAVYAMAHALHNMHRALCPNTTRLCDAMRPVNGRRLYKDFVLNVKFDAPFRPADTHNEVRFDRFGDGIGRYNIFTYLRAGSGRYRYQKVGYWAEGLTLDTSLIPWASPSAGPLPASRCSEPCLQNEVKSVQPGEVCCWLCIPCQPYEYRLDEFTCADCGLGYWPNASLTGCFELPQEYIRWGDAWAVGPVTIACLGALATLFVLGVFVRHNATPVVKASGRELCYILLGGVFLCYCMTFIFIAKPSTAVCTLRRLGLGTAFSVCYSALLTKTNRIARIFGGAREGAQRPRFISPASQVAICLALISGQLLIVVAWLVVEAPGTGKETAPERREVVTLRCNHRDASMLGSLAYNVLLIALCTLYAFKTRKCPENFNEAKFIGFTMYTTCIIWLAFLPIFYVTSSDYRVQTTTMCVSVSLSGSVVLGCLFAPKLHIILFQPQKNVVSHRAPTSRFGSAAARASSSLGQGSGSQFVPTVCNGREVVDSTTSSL
T1 sequence (Q14832 whole entry): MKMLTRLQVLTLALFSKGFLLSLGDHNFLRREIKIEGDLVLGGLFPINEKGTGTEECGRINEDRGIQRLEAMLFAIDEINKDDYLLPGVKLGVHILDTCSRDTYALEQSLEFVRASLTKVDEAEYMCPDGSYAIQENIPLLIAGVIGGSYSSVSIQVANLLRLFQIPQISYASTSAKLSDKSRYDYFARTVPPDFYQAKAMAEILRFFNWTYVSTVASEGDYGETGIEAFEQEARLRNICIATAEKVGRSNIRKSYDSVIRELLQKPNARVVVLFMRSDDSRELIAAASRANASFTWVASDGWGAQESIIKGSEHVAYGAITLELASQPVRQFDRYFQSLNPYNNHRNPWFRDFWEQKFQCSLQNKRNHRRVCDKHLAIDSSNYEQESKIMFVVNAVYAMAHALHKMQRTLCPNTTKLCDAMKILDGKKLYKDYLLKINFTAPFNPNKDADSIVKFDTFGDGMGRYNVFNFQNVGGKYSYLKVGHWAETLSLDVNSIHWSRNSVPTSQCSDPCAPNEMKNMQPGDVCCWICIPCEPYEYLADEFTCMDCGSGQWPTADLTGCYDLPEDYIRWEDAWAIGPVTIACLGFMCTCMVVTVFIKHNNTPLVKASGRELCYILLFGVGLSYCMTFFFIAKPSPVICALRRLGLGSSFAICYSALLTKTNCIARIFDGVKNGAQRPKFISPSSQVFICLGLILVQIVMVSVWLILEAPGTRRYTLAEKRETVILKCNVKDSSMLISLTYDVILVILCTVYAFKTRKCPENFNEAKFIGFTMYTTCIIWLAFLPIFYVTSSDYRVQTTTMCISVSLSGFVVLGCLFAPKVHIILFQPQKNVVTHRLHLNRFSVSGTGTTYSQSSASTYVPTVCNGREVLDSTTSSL

`N[C@]1(C(=O)O)[C@@H]2[C@@H](C(=O)O)[C@@H]2[C@H](O)[C@H]1CSc1ccc(F)cc1`: the IC50 in assay [1] was determined as 41.9 nM; in assay [4] it was 20.2 nM. The Ki in assay [2] was determined as 6.8 nM; in assay [3] it was 10.4 nM.
`Cc1cc(SC[C@@H]2[C@@H](O)[C@H]3[C@H](C(=O)O)[C@H]3[C@]2(N)C(=O)O)ccc1F` registered an inhibitory constant (Ki) in assay [3] of 8.9 nM. This molecule returned an IC50 in assay [4] of 17.2 nM.
Regarding `N[C@]1(C(=O)O)[C@@H]2[C@@H](C(=O)O)[C@@H]2[C@H](O)[C@H]1CSc1ccccc1`, the IC50 in assay [1] worked out at 202 nM. Also, the inhibition constant Ki in assay [2] worked out at 19.2 nM.
In assay [5], `N[C@@]1(C(=O)O)C[C@H](O)[C@H]2[C@H](C(=O)O)[C@H]21` came in with an IC50 of 22.6 nM.
As for `N[C@]1(C(=O)O)[C@@H]2[C@@H](C(=O)O)[C@@H]2[C@@H](O)[C@@H]1CSc1ccccc1`, the IC50 in assay [1] was found to be 2160 nM. The Ki in assay [2] was 238 nM.
`N[C@@]1(C(=O)O)CC[C@H]2[C@H](C(=O)O)[C@H]21`: the half-inhibitory concentration (IC50) in assay [5] was found to be 7 nM; in assay [6], 27.9 nM.
In the case of `N[C@@]1(C(=O)O)C[C@@H](O)[C@H]2[C@H](C(=O)O)[C@H]21`, the concentration for half-maximal inhibition (IC50) in assay [5] was determined as 8.6 nM.
For `Cc1cc(SC[C@@H]2[C@@H](Sc3nc[nH]n3)[C@H]3[C@H](C(=O)O)[C@H]3[C@]2(N)C(=O)O)ccc1F`, the Ki in assay [3] was 5.2 nM. The same molecule showed a half-inhibitory concentration (IC50) in assay [4] of 6.6 nM.
On to `N[C@]1(C(=O)O)[C@@H]2[C@@H](C(=O)O)[C@@H]2[C@H](O)[C@H]1CSc1ccccc1F`, for which the results for the IC50 in assay [1] and in assay [4] were 967 nM and 1440 nM, respectively. Further, the Ki was 369 nM in assay [2] and 728 nM in assay [3].
Turning to `N[C@]1(C(=O)O)[C@@H]2[C@@H](C(=O)O)[C@@H]2[C@H](O)[C@@H]1CSc1ccccc1`, in assay [1], the IC50 amounted to 2410 nM. Further, the Ki in assay [2] came out at 251 nM.
Consider `N[C@]1(C(=O)O)[C@@H]2[C@@H](C(=O)O)[C@@H]2[C@H](O)[C@H]1CSCc1ccc(Cl)c(Cl)c1`, for which the IC50 was determined as 62.3 nM in assay [1] and 49.4 nM in assay [4]. Besides, the inhibitory constant (Ki) in assay [2] turned out to be 16.3 nM; in assay [3], 20.5 nM.
As for `N[C@]1(C(=O)O)[C@@H]2[C@@H](C(=O)O)[C@@H]2[C@H](O)[C@H]1CSc1cccc(F)c1`, the IC50 in assay [1] was 272 nM; in assay [4], 76.2 nM. Further, the inhibition constant Ki in assay [2] stood at 25.1 nM; in assay [3], 43.7 nM.
With `N[C@]1(C(=O)O)[C@@H]2[C@@H](C(=O)O)[C@@H]2[C@@H](O)[C@H]1CSc1ccccc1`, the IC50 in assay [1] came out at 547 nM. Moreover, the inhibitory constant (Ki) in assay [2] is 26 nM.
Consider `N[C@@]1(C(=O)O)[C@H](Cc2ccc(F)c(Cl)c2)C[C@H]2[C@H](C(=O)O)[C@H]21`, for which the IC50 in assay [1] worked out at 110 nM.
For `CC(=O)N[C@H]1[C@H]2[C@H](C(=O)O)[C@H]2[C@](N)(C(=O)O)[C@@H]1CSc1ccc(F)c(C)c1`, the figures for the IC50 in assay [1] and in assay [4] were 12.4 nM and 26.2 nM, respectively. Also, the Ki came out at 7.7 nM in assay [2] and 9.2 nM in assay [3].
The like results for `Cc1cc(SC[C@@H]2[C@@H](N)[C@H]3[C@H](C(=O)O)[C@H]3[C@]2(N)C(=O)O)ccc1F` were, in that order, 163 nM, 45.4 nM, 36.1 nM and 24 nM.
The like results for `N[C@]1(C(=O)O)[C@@H]2[C@@H](C(=O)O)[C@@H]2[C@H](O)[C@H]1CSc1ccc(Cl)c(Cl)c1` were, in that order, 56.5 nM, 9.8 nM, 9.4 nM and 8.4 nM.
In assay [3], `Cc1ccc(SC[C@@H]2[C@@H](O)[C@H]3[C@H](C(=O)O)[C@H]3[C@]2(N)C(=O)O)cc1C` came in with an inhibition constant (Ki) of 14.2 nM. For the same molecule, in assay [4], the IC50 turned out to be 27.6 nM.
`CC(C)SC[C@@H]1[C@@H](O)[C@H]2[C@H](C(=O)O)[C@H]2[C@]1(N)C(=O)O` showed a Ki in assay [3] of 1200 nM. Further, in assay [4], the half-maximal inhibitory concentration (IC50) is 2280 nM.
